Read-outs that look alike come from different tables or passages of the source.
Assays:
[1] = Stability in human liver microsome; type: in vitro ADME; conditions: liver microsomes, pH 7.4, 1.5 μM drug solution, NADPH, 37° C., read-out: Human T1/2
Description: Vortexing for 10 min, the sample was centrifuged with 5594×g for 15 min in centrifuger (Thermo Multifuge×3R). • 10) taking 50 μL supernatant from the centrifuged sample, transferred to 96 well sample plate contain 50 μL water, mixed, and the sample was analyzed using LC-MS/MS.

NCI-H82 cell = assay: Cell viability (Promega CellTiter-Glo) of NCI-H82 cell; type: cell-based; conditions: Homo sapiens
Description: Cell viability was detected using the Promega CellTiter-Glo kit, the kit reflected cell viability by directly measuring intracellular ATP content. Small cell lung cancer cell NCI-H82 (ATCC, No. HTB-175) was cultured in 10% fetal bovine serum-containing RPMI1640 medium (+P/S).
(§1) Cell viability was detected using the Promega CellTiter-Glo kit, the kit reflected cell viability by directly measuring intracellular ATP content.
(§2) Daoy cell was cultured in 10% fetal bovine serum-containing DMEM medium (+P/S), and NCI-H82 cell was cultured in 10% fetal bovine serum-containing RPMI1640 medium (+P/S).
(§3) Cell viability was detected using the Promega CellTiter-Glo kit, the kit reflected cell viability by directly measuring intracellular ATP content. In the experiment, the IC50 value of different compounds on different tumor cell lines was detected to determine cell lines that were sensitive or insensitive to different compounds.
(§4) Tumor cells were cultured in 10% FBS-containing medium (+p/s), and incubated for 3 h or the following day, then the gradient diluted compound was added. After 3 days of culture, the relevant IC50 (50% inhibiting concentration) was measured. The name, source and culture conditions of each tumor cell line were as follows:
Cell line NCI-H82 (ATCC, No. HTB-175) was cultured in 10% fetal bovine serum-containing RPMI1640 medium (+P/S).

SW48 = assay: Cell viability (CellTiter-Glo) of SW48; type: cell-based; conditions: Homo sapiens, 72 h; SW48, 3 days of culture, Table 5; read-out: IC50 SW48
Description: (§5) Cell viability was detected using the Promega CellTiter-Glo kit, the kit reflected cell viability by directly measuring intracellular ATP content. Different cancer cells was cultured in medium, the 50% inhibiting concentration (IC50) of compound AB24852 on cancer cells was determined using Promega CellTiter-Glo kit. The name, source and culture conditions of each tumor cell line were as follows:
Cell line SW48 (ATCC, No. CCL-231) was cultured in 10% fetal bovine serum-containing Leibovitz's L-15 medium (+P/S).
as §3
(§6) Tumor cells were cultured in 10% FBS-containing medium (+p/s), and incubated for 3 h or the following day, then the gradient diluted compound was added. After 3 days of culture, the relevant IC50 (50% inhibiting concentration) was measured. The name, source and culture conditions of each tumor cell line were as follows: […]

MDA-MB-453 = assay: Cell viability (CellTiter-Glo) of MDA-MB-453; type: cell-based; conditions: Homo sapiens, 72 h; MDA-MB-453, 3 days of culture, Table 5; read-out: IC50 MDA-MB-453
Description: as §5
Cell line MDA-MB-453 (ATCC, No. HTB-131) was cultured in 10% fetal bovine serum-containing Leibovitz's L-15 medium (+P/S).
as §3, §6

786-O = assay: Cell viability (CellTiter-Glo) of 786-O; type: cell-based; conditions: Homo sapiens, 786-0, 72 h, 3 days of culture
Description: as §3, §4
Cell line 786-0 (ATCC, No. CRL-1932) was cultured in 10% fetal bovine serum-containing RPMI1640 medium (+P/S).

SF-126 = assay: Cell viability (CellTiter-Glo) of SF-126; type: cell-based; conditions: Homo sapiens, 72 h; SF-126, 3 days of culture
Description: as §3, §6

G-401 = assay: Cell viability (CellTiter-Glo) of G-401; type: cell-based; conditions: Homo sapiens, 72 h; G-401, 3 days of culture, Table 5; read-out: IC50 G-401
Description: as §5
Cell line G-401 (ATCC, No. CRL-1441) was cultured in 10% fetal bovine serum-containing McCoy's 5a medium (+P/S).
as §3, §6

CFPAC-1 = assay: Cell viability (CellTiter-Glo) of CFPAC-1; type: cell-based; conditions: Homo sapiens, 72 h; CFPAC-1, 3 days of culture
Description: as §3, §4
Cell line CFPAC-1 (ATCC, No. CRL-1918) was cultured in 10% fetal bovine serum-containing IMDM medium (+P/S).

GB-1 = assay: Cell viability (CellTiter-Glo) of GB-1; type: cell-based; conditions: Homo sapiens, 72 h; GB-1, 3 days of culture
Description: as §3, §4
Cell line GB-1 (JCRB, No. IF050489) was cultured in 10% fetal bovine serum-containing DMEM medium (+P/S).

Daoy cell = assay: Cell viability (CellTiter-Glo) of Daoy cell with or without CsA; type: cell-based; conditions: Homo sapiens
Description: as §1, §2

[2] = NCI-H82 cell, Table 1, read-out: IC50
[3] = 72 h, NCI-H82, 3 days of culture, Table 5, read-out: IC50 NCI-H82
[4] = NCI-H82, read-out: IC50 NCI-H82 cell without CsA
[5] = read-out: IC50 Daoy cell with CsA
[6] = read-out: IC50 Daoy cell without CsA

Row | SMILES | half-life at 1 µM [1] [h] | IC50 (NCI-H82 cell; [2]) [nM] | IC50 (SW48) [nM] | IC50 (MDA-MB-453) [nM] | IC50 (786-O) [nM] | IC50 (NCI-H82 cell; [3]) [nM] | IC50 (SF-126) [nM] | IC50 (G-401) [nM] | IC50 (CFPAC-1) [nM] | IC50 (GB-1) [nM] | IC50 (NCI-H82 cell; [4]) [nM] | IC50 (Daoy cell; [5]) [nM] | IC50 (Daoy cell; [6]) [nM] | IC50 (NCI-H82 cell; NCI-H82) [nM] | IC50 (NCI-H82 cell; NCI-H82, 72 h, read-out: IC50 NCI-H82) [nM]
1 | Cc1cn(Cc2ccccc2)c2cc[n+](C3CCc4ccc(Cl)cc4C3=O)cc12 (stereo not drawn) [AB27142] | 12.4 | 60 |  |  |  |  |  |  |  |  |  |  |  |  | 
2 | O=C(C[n+]1ccc(NCc2ccccc2)cc1)c1cccc(Cl)c1 [AB24805A] | 3.71 | 370 | 760 | 210 | 46500 | 370 | 3180 | 420 | 35700 | 3430 |  |  |  |  | 
3 | O=C1c2cc(C(F)(F)F)ccc2CCC1[n+]1ccc(NCc2ccccc2)cc1 (stereo not drawn) [AB27144] | 75.2 | 160 |  |  |  |  |  |  |  |  | 160 | 210 | 1020 |  | 
4 | O=C(C[n+]1ccc2[nH]cc(Cc3ccccc3)c2c1)c1ccc(Cl)cc1 [AB24833A] |  |  | 8160 | 5300 | 45400 |  | 21600 | 5300 | 24800 | 22000 |  |  |  | 3380 | 3380
5 | Cc1ccc(C(=O)C[n+]2ccc(NCc3ccccc3)nc2)cc1 [AB24846] |  | 510 | 2050 | 820 | 47300 | 510 | 3610 | 690 | 36400 | 12300 |  |  |  |  | 
6 | O=C(C[n+]1ccc(NCc2ccccc2)cc1)c1ccc(C(F)(F)F)cc1 [AB24809A] | 6.64 | 2430 | 7640 | 1770 | > 50000 | 2430 | 37500 | 3030 | > 50000 | > 50000 |  |  |  |  | 
7 | O=C1c2cc(Cl)ccc2CCC1[n+]1ccc2c(c1)CCC(c1ccccc1)N2 (stereo not drawn) [AB27130] | 5.96 | 770 |  |  |  |  |  |  |  |  | 770 | 310 | 5500 |  | 
8 | O=C1c2cc(OC(F)(F)F)ccc2CCC1[n+]1ccc2c(ccn2Cc2ccccc2)c1 (stereo not drawn) [AB27126] | 20.8 | 150 |  |  |  |  |  |  |  |  | 150 | 280 | 1950 |  | 
9 | O=C1c2cc(Cl)ccc2CCC1[n+]1ccc2c(ccn2Cc2ccccc2)c1 (stereo not drawn) [AB27124] | 1.77 | 30 |  |  |  |  |  |  |  |  |  |  |  |  | 
10 | O=C(C[n+]1ccc(NCc2ccccc2)nc1)c1ccc(-c2ccccc2)cc1 [AB24964] | 3.6 | 1090 |  |  |  |  |  |  |  |  |  |  |  |  | 
11 | O=C(C[n+]1ccc(NCc2ccccc2)cc1)c1ccc(OC(F)(F)F)cc1 [AB24810A] | 65.2 | 1340 | 2130 | 2690 | > 50000 | 1340 | 13100 | 1950 | 36000 | 24500 |  |  |  |  | 
12 | O=C(C[n+]1ccc(NCc2ccccc2)cc1)c1ccc(Br)cc1 [AB24808A] | 5.69 | 610 | 1780 | 360 | 44000 | 610 | 2980 | 910 | 20000 | 5270 |  |  |  |  | 
13 | O=C1c2cc(Cl)ccc2CCC1[n+]1ccc(NCc2ccccc2)cc1 (stereo not drawn) [AB24913] | 7.97 | 180 |  |  |  |  |  |  |  |  |  |  |  |  | 
14 | O=C1c2cc(C(F)(F)F)ccc2CCC1[n+]1ccc2c(c1)CCC(c1ccccc1)N2 (stereo not drawn) [AB27131] | 6.81 | 440 |  |  |  |  |  |  |  |  | 440 | 710 | 4750 |  | 
15 | O=C(C[n+]1ccc(NCc2ccccc2)cc1)c1ccccc1 [AB24807A] | 3.31 | 540 |  |  |  |  |  |  |  |  |  |  |  |  | 
16 | O=C1c2cc(C(F)(F)F)ccc2CCC1[n+]1ccc2c(ccn2Cc2ccccc2)c1 (stereo not drawn) [AB27125] | 14.2 | 110 |  |  |  |  |  |  |  |  | 110 | 190 | 1460 |  | 
17 | Cc1ccc(C(=O)C[n+]2ccc(NCc3ccccc3)cc2)cc1 [AB24845A] |  | 120 | 140 | 190 | 38600 | 120 | 2280 | 300 | 29400 | 4370 |  |  |  |  | 
18 | O=C1c2ccc(Cl)cc2CCC1[n+]1ccc(NCc2ccccc2)cc1 (stereo not drawn) [AB24841A] | 20.4 | 590 | 800 | 620 | > 50000 | 590 | 10800 | 630 | 35700 | 16400 |  |  |  |  | 
19 | CC(c1ccccc1)[n+]1ccc2c(ccn2C2CCc3ccc(Cl)cc3C2=O)c1 (stereo not drawn) [AB27141] | 4.85 | 10 |  |  |  |  |  |  |  |  | 10 | 28 | > 1000 |  | 
20 | O=C1c2cc(OC(F)(F)F)ccc2CCC1[n+]1ccc(NCc2ccccc2)cc1 (stereo not drawn) [AB27156] | 17.5 | 260 |  |  |  |  |  |  |  |  | 260 | 240 | 1050 |  | 
21 | O=C(C[n+]1ccc2c(c1)CCCC(c1ccccc1)N2)c1ccc(Cl)cc1 (stereo not drawn) [AB24839] | 11.2 | 990 |  |  |  |  |  |  |  |  |  |  |  |  | 
22 | O=C1c2ccc(Cl)cc2CC1[n+]1ccc(NCc2ccccc2)cc1 (stereo not drawn) [AB24840A] | 2.33 | 2590 |  |  |  |  |  |  |  |  |  |  |  |  | 

Source: patent US20240124445A1, “BENZENE RING COMPOUND AND USE THEREOF” (NANJING SHIJIANG MEDICINE TECHNOLOGY CO., LTD, priority 2020, published 2024)
